From US12077503B2, “Substituted cyclic amides and their use as herbicides” (FMC CORPORATION, priority 2015, dated 2024)

Columns and labels:
Type in all cases: in vivo
[1] = system: giant foxtail (Setaria faberii); test: Test A preemergence; conditions: for Plant response rating, Foxtail, Giant: 125 g ai/ha, preemergence, 0 to 100 scale (0 no effect, 100 complete control); for Foxtail, Giant plant response rating (0 to 100 scale, 0 is no effect, 100 is complete control): Preemergence, 500 g ai/ha, visual injury approx. 10 d
Outline: (§1)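 Visual injury scores from 0, no effect, to 100, complete control, were assigned versus untreated controls roughly 10 d after treatment in the greenhouse. Test chemicals, formulated with surfactant in a non-phytotoxic solvent, were applied to planted seeds as a preemergence soil spray or postemergence to one- to two-leaf plants 2 to 10 cm tall, in loam–sand soil.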

[2] = system: pigweed (Amaranthus retroflexus); test: Test A preemergence; conditions: for Plant response rating, Pigweed: 125 g ai/ha, preemergence, 0 to 100 scale (0 no effect, 100 complete control); for Pigweed plant response rating (0 to 100 scale, 0 is no effect, 100 is complete control): Preemergence, 500 g ai/ha, visual injury approx. 10 d
[3] = system: ryegrass, Italian (Italian ryegrass, Lolium multiflorum); test: Test A preemergence; conditions: for Plant response rating, Ryegrass, Italian: 125 g ai/ha, preemergence, 0 to 100 scale (0 no effect, 100 complete control); for Ryegrass, Italian plant response rating (0 to 100 scale, 0 is no effect, 100 is complete control): Preemergence, 500 g ai/ha, visual injury approx. 10 d
Outline: as §1

[4] = system: Kochia (Kochia scoparia); test: Test A preemergence; conditions: for Plant response rating, Kochia: 125 g ai/ha, preemergence, 0 to 100 scale (0 no effect, 100 complete control); for Kochia plant response rating (0 to 100 scale, 0 is no effect, 100 is complete control): Preemergence, 500 g ai/ha, visual injury approx. 10 d
Outline: as §1

[5] = system: barnyardgrass (Echinochloa crus-galli); test: Test A preemergence; conditions: for Plant response rating, Barnyardgrass: 125 g ai/ha, preemergence, 0 to 100 scale (0 no effect, 100 complete control); for Barnyardgrass plant response rating (0 to 100 scale, 0 is no effect, 100 is complete control): Preemergence, 500 g ai/ha, visual injury approx. 10 d
Outline: as §1

[6] = system: ragweed (common ragweed, Ambrosia elatior); test: Test A preemergence; conditions: for Plant response rating, Ragweed: 125 g ai/ha, preemergence, 0 to 100 scale (0 no effect, 100 complete control); for Ragweed plant response rating (0 to 100 scale, 0 is no effect, 100 is complete control): Preemergence, 500 g ai/ha, visual injury approx. 10 d
Outline: as §1

[7] = system: ducksalad (Heteranthera limosa); test: Test B flooded paddy test; conditions: Flood, 250 g ai/ha; 0 to 100 scale where 0 is no effect and 100 is complete control; 13 to 15 d
Outline: (§2)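 Percent control, visually estimated after 13–15 d in the greenhouse on a 0–100 basis, compares treated pots with untreated ones; compound was put into paddy water 3 cm above the soil when plants had two leaves.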

[8] = system: rice (Oryra sativa); test: Test B flooded paddy test; conditions: Flood, 250 g ai/ha; 0 to 100 scale where 0 is no effect and 100 is complete control; 13 to 15 d
Outline: as §2

[9] = system: barnyardgrass (Echinochloa crus-galli); test: Test B flooded paddy test; conditions: Flood, 250 g ai/ha; 0 to 100 scale where 0 is no effect and 100 is complete control; 13 to 15 d
Outline: as §2

[10] = system: sedge, umbrella (small-flower umbrella sedge, Cyperus difformis); test: Test B flooded paddy test; conditions: Flood, 250 g ai/ha; 0 to 100 scale where 0 is no effect and 100 is complete control; 13 to 15 d
Outline: as §2

[11] = system: giant foxtail (Setaria faberii); test: Test A postemergence; conditions: postemergence; for Foxtail, Giant plant response rating: 125 g ai/ha, visual injury rating on 0 to 100 scale (0 no effect, 100 complete control), approx. 10 d; for Plant response rating, Foxtail, Giant: 500 g ai/ha, 0 to 100 scale, 0 no effect, 100 complete control
Outline: as §1

[12] = system: corn (Zea mays); test: Test A postemergence; conditions: postemergence; for Corn plant response rating: 125 g ai/ha, visual injury rating on 0 to 100 scale (0 no effect, 100 complete control), approx. 10 d; for Plant response rating, Corn: 500 g ai/ha, 0 to 100 scale, 0 no effect, 100 complete control
Outline: as §1

[13] = system: pigweed (Amaranthus retroflexus); test: Test A postemergence; conditions: postemergence; for Pigweed plant response rating: 125 g ai/ha, visual injury rating on 0 to 100 scale (0 no effect, 100 complete control), approx. 10 d; for Plant response rating, Pigweed: 500 g ai/ha, 0 to 100 scale, 0 no effect, 100 complete control
Outline: as §1

[14] = system: Galium (catchweed bedstraw, Galium aparine); test: Test A postemergence; conditions: postemergence; for Galium plant response rating: 125 g ai/ha, visual injury rating on 0 to 100 scale (0 no effect, 100 complete control), approx. 10 d; for Plant response rating, Galium: 500 g ai/ha, 0 to 100 scale, 0 no effect, 100 complete control
Outline: as §1

[15] = system: blackgrass (Alopecurus myosuroides); test: Test A postemergence; conditions: postemergence; for Blackgrass plant response rating: 125 g ai/ha, visual injury rating on 0 to 100 scale (0 no effect, 100 complete control), approx. 10 d; for Plant response rating, Blackgrass: 500 g ai/ha, 0 to 100 scale, 0 no effect, 100 complete control
Outline: as §1

[16] = system: wheat (Triticum aestivum); test: Test A postemergence; conditions: postemergence; for Wheat plant response rating: 125 g ai/ha, visual injury rating on 0 to 100 scale (0 no effect, 100 complete control), approx. 10 d; for Plant response rating, Wheat: 500 g ai/ha, 0 to 100 scale, 0 no effect, 100 complete control
Outline: as §1

[17] = system: ryegrass, Italian (Italian ryegrass, Lolium multiflorum); test: Test A postemergence; conditions: postemergence; for Ryegrass, Italian plant response rating: 125 g ai/ha, visual injury rating on 0 to 100 scale (0 no effect, 100 complete control), approx. 10 d; for Plant response rating, Ryegrass, Italian: 500 g ai/ha, 0 to 100 scale, 0 no effect, 100 complete control
Outline: as §1

[18] = system: Kochia (Kochia scoparia); test: Test A postemergence; conditions: postemergence; for Kochia plant response rating: 125 g ai/ha, visual injury rating on 0 to 100 scale (0 no effect, 100 complete control), approx. 10 d; for Plant response rating, Kochia: 500 g ai/ha, 0 to 100 scale, 0 no effect, 100 complete control
Outline: as §1

[19] = system: barnyardgrass (Echinochloa crus-galli); test: Test A postemergence; conditions: postemergence; for Barnyardgrass plant response rating: 125 g ai/ha, visual injury rating on 0 to 100 scale (0 no effect, 100 complete control), approx. 10 d; for Plant response rating, Barnyardgrass: 500 g ai/ha, 0 to 100 scale, 0 no effect, 100 complete control
Outline: as §1

[20] = system: ragweed (common ragweed, Ambrosia elatior); test: Test A postemergence; conditions: postemergence; for Ragweed plant response rating: 125 g ai/ha, visual injury rating on 0 to 100 scale (0 no effect, 100 complete control), approx. 10 d; for Plant response rating, Ragweed: 500 g ai/ha, 0 to 100 scale, 0 no effect, 100 complete control
Outline: as §1

| SMILES | Plant response rating, Foxtail, Giant [1] | Foxtail, Giant plant response rating (0 to 100 scale, 0 is no effect, 100 is complete control) [1] | Plant response rating, Pigweed [2] | Pigweed plant response rating (0 to 100 scale, 0 is no effect, 100 is complete control) [2] | Plant response rating, Ryegrass, Italian [3] | Ryegrass, Italian plant response rating (0 to 100 scale, 0 is no effect, 100 is complete control) [3] | Plant response rating, Kochia [4] | Kochia plant response rating (0 to 100 scale, 0 is no effect, 100 is complete control) [4] | Plant response rating, Barnyardgrass [5] | Barnyardgrass plant response rating (0 to 100 scale, 0 is no effect, 100 is complete control) [5] | Plant response rating, Ragweed [6] | Ragweed plant response rating (0 to 100 scale, 0 is no effect, 100 is complete control) [6] | Plant response rating, Ducksalad [7] | Plant response rating, Rice [8] | Plant response rating, Barnyardgrass [9] | Plant response rating, Sedge, Umbrella [10] | Foxtail, Giant plant response rating [11] | Plant response rating, Foxtail, Giant [11] | Corn plant response rating [12] | Plant response rating, Corn [12] | other results |
| --- | --- | --- | --- | --- | --- | --- | --- | --- | --- | --- | --- | --- | --- | --- | --- | --- | --- | --- | --- | --- | --- |
| Cc1ccc(C2CNC(=O)C2C(=O)Nc2ccc(F)c(C)c2F)cc1F (stereo not drawn) [Compound 462] | 80 | 90 | 0 | 0 | 0 | 0 | 30 | 70 | 80 | 90 | 10 | 50 | 85 | 0 | 40 | 0 | 60 | 70 | 0 | 0 | Pigweed plant response rating [13]: 0; Plant response rating, Pigweed [13]: 0; Galium plant response rating [14]: 0; Plant response rating, Galium [14]: 10; Blackgrass plant response rating [15]: 20; Plant response rating, Blackgrass [15]: 40; Wheat plant response rating [16]: 0; Plant response rating, Wheat [16]: 0; Ryegrass, Italian plant response rating [17]: 0; Plant response rating, Ryegrass, Italian [17]: 0; Kochia plant response rating [18]: 0; Plant response rating, Kochia [18]: 0; Barnyardgrass plant response rating [19]: 70; Plant response rating, Barnyardgrass [19]: 80; Ragweed plant response rating [20]: 0; Plant response rating, Ragweed [20]: 0 |
| Cc1c(F)ccc(NC(=O)C2C(=O)NCC2c2cccc(C(F)(F)F)c2)c1F (stereo not drawn) [Compound 463] | 80 | 90 | 0 | 0 | 0 | 20 | 0 | 0 | 50 | 80 | 0 | 0 | 70 | 0 | 25 | 0 | 70 | 70 | 0 | 0 | Pigweed plant response rating [13]: 0; Plant response rating, Pigweed [13]: 0; Galium plant response rating [14]: 0; Plant response rating, Galium [14]: 0; Blackgrass plant response rating [15]: 20; Plant response rating, Blackgrass [15]: 70; Wheat plant response rating [16]: 0; Plant response rating, Wheat [16]: 0; Ryegrass, Italian plant response rating [17]: 0; Plant response rating, Ryegrass, Italian [17]: 30; Kochia plant response rating [18]: 0; Plant response rating, Kochia [18]: 0; Barnyardgrass plant response rating [19]: 50; Plant response rating, Barnyardgrass [19]: 70; Ragweed plant response rating [20]: 0; Plant response rating, Ragweed [20]: 0 |
| CCc1ccc(C2CNC(=O)C2C(=O)Nc2ccccc2F)cc1 (stereo not drawn) [Compound 466] | 70 | 90 | 0 | 0 | 0 | 20 | 0 | 0 | 90 | 90 | 0 | 30 | 0 | 0 | 0 | 0 | 20 | 80 | 0 | 30 | Pigweed plant response rating [13]: 0; Plant response rating, Pigweed [13]: 0; Galium plant response rating [14]: 0; Plant response rating, Galium [14]: 0; Blackgrass plant response rating [15]: 30; Plant response rating, Blackgrass [15]: 60; Wheat plant response rating [16]: 0; Plant response rating, Wheat [16]: 20; Ryegrass, Italian plant response rating [17]: 0; Plant response rating, Ryegrass, Italian [17]: 20; Kochia plant response rating [18]: 0; Plant response rating, Kochia [18]: 0; Barnyardgrass plant response rating [19]: 80; Plant response rating, Barnyardgrass [19]: 90; Ragweed plant response rating [20]: 0; Plant response rating, Ragweed [20]: 30 |
